Test system: adult cycling cynomolgus macaques
Assay: animal model of intrauterine bleeding: IUS inserted in macaques, daily vaginal swabs scored for bleeding
Type: in vivo
Conditions: Group 1: IUS releasing 2 μg per day of levonorgestrel, 9 monkeys
Description: The effects of administering via an intrauterine system (IUS) levonorgestrel alone, or in combination with indomethacin, were tested in animal model of intrauterine bleeding. The study was conducted using three groups of adult cycling cynomolgus macaques. The macaques were monitored to record regular menstrual cycles. Scheduled (menses) and unscheduled uterine bleeding and spotting was assessed daily by vaginal swabs, and menstrual blood loss was quantified by vaginal tampons.
After about two menstrual cycles (about 60 days), the macaques were assigned to three separate groups and laparotomized on days 6-9 of the follicular phase. For each macaque, an IUS was inserted by hysterotomy into the uterine lumen and sutured in place. Group 1 included 9 monkeys that were given an IUS that released 2 μg per day of levonorgestrel. Group 2 included 8 monkeys that were given an IUS that released 2 μg per day of levonorgestrel and 10 μg per day of indomethacin. Group 3 included 7 monkeys that were given an IUS that released 2 μg per day of levonorgestrel and 30 μg per day of indomethacin.
The frequency and type of bleeding was assessed by daily vaginal swabs. FIGS. 9A-9B illustrate the results of the different types of bleedings. Gray-shaed cells represent positive swab or frank menses, which is the most heavy form of bleeding. Diagonal-lined cells represent light positive swab, which is an intermediated type of bleeding.
The gray-shaded cells that were assigned represent the heaviest form of bleeding were assigned a score of 2. The diagonal-lined cells represent an intermediate type of bleeding and were assigned a score of 1.
For evaluation of bleeding days, the first 7 days after insertion of the IUS were neglected, since the insertion procedure by surgery causes some bleeding that is unrelated to treatment effects. FIGS. 9A-9B include data for a period of 80 days after the IUS was inserted in each of the macaques.

[1] = 80 days after insertion, first 7 days neglected

In the case of `C#C[C@]1(O)CC[C@H]2[C@@H]3CCC4=CC(=O)CC[C@@H]4[C@H]3CC[C@@]21CC` [levonorgestrel], the “average score for each of the macaques (heaviest bleeding = 2, intermediate = 1)” value is reported as 11.9, the “total score for all of the macaques (heaviest bleeding = 2, intermediate = 1)” value is reported as 107 and the “average number of bleeding days per macaque” value [1] is reported as 8.6 days. The “total number of bleeding days” value [1] was 77 days.

Reference: US20170312219A1, “METHOD OF CONTRACEPTION” (Bayer Oy, priority 2008, published 2017)
